Results as given in patent publication US20210252094A1, “COMPOSITION FOR IMPROVING SLEEP DISORDERS CAUSED BY CAFFEINE CONTAINING CITRUS RIND EXTRACT” (NOAHS CO., LTD., priority 2018, published 2021).
Entries after “also recorded” stand apart in the source; their conditions may differ.

Test system: brain hippocampal slices
Test: Measurement of neural activity of cultured hippocampal slices on microelectrode array (MEA), caffeine-induced
Assay type: cell-based, Sprague Dawley white young rat
Conditions: for neural activity after washing: 1 mM caffeine plus sample (extract 400 μg/ml, hesperidin 40 μg/ml, narirutin 136 μg/ml), then washed 20 min with artificial cerebrospinal fluid only; for degree of neural activity compared to treatment of caffeine alone: perfused 20 min with 1 mM caffeine plus sample (citrus unshiu peel extract 400 μg/ml, hesperidin 40 μg/ml, narirutin 136 μg/ml), before washing
From the text: A method of organotypic culturing of slices of the brain hippocampus using a thin film used an already commonly used method. Specifically, the brain hippocampus was extracted from a Sprague Dawley white young rat (Orientbio Co., Seungnam, Korea) of 5- to 7-day old, and sliced to a thickness of 350 μm using a tissue slicer (Mickle Laboratory Engineering Co., UK). After 5 to 6 slices were disposed into a thin film insert (Millicell-CM; Millipore, MA) with 0.4-μm holes, put in a 6-well plate (SPL Life Sciences Co., Korea), and then cultured in an incubator kept with 5% CO2 at 36° C. (Dong-A Co., Seoul, Korea). A culture solution (MEM; Welgene, Gyeongsan, South Korea), 20 mM HEPES (Sigma, St. Louis, Mo., USA), a 25% Hank's balanced salt solution (HBSS; Welgene, Gyeongsan, South Korea), 6 g/L D-glucose (Sigma, St. Louis, Mo., USA), 1 mM L-glutamine (Sigma, St. Louis, Mo., USA), 25% horse serum (Welgene, Gyeongsan, South Korea), and 1% penicillin-streptomycin (Gibco BRL, USA), pH=7.1) were changed once every two days, and the culture period was 12 to 14 days, and then used in a subsequent experiment (FIG. 5). After the cultured brain hippocampal slices were carefully isolated from the cultured thin film insert using a pin, the brain hippocampal slices were placed on a 8×8 microelectrode array (MEA; Multi Channel Systems, Germany) with a diameter of 10 μm and an interval of 100 μm coated with 0.01% polyethyleneimine (Sigma, St. Louis, Mo., USA). […] Thereafter, the MEA containing the brain hippocampus was mounted on an amplification device MEA1060 (Multi Channel Systems Inc., Reutlingen, Germany), and the artificial spinal cord solution in the MEA was grounded with Ag/AgCl. During the subsequent experiment, the artificial spinal cord solution into which the 5% CO2 and 95% 02 mixed gas was added was perfused at a rate of 3 mL/min, and the MEA and the artificial spinal cord solution were maintained at 33° C. (FIG. 6) . […] The MEA with the hippocampal tissue read data at a sampling rate of 25 kHz for each channel through a total of 60 channels, and was recorded through a computer using MC_Rack and MC_Data Tool (Multi Channel Systems, GmbH) software. A 4-stage band pass filter was used to extract meaningful spikes from all recorded signals, and Equation is as follows. Wherein, X represents a root mean square (RMS) for noise, and k is a factor that determines each threshold. Here, the threshold consisted of a total of three factors (0.6, 1 and 3). […] This process was performed using a MATLAB (Mathworks Inc., Natick, Massachusetts, USA) program for all 60 channels (FIG. 7).

SMILES: C[C@@H]1O[C@@H](OC[C@H]2O[C@@H](Oc3cc(O)c4c(c3)O[C@H](c3ccc(O)cc3)CC4=O)[C@H](O)[C@@H](O)[C@@H]2O)[C@H](O)[C@H](O)[C@H]1O [narirutin]
- neural activity after washing: maintained without a significant increase; also recorded: neural activity inhibitory effect persisted
- degree of neural activity compared to treatment of caffeine alone: significantly reduced

SMILES: COc1ccc([C@@H]2CC(=O)c3c(O)cc(O[C@@H]4O[C@H](CO[C@@H]5O[C@@H](C)[C@H](O)[C@@H](O)[C@H]5O)[C@@H](O)[C@H](O)[C@H]4O)cc3O2)cc1O [hesperidin]
- neural activity after washing: maintained without a significant increase; also recorded: neural activity inhibitory effect persisted
- degree of neural activity compared to treatment of caffeine alone: significantly reduced

SMILES: Cn1c(=O)c2c(ncn2C)n(C)c1=O [caffeine, 1,3,7-trimetnylxanthine]
- increase of neural activity after washing (1 mM caffeine alone, after washing): ≥ 200%
